According to US8173635B2, “Kinase inhibitors” (Vertex Pharmaceuticals Incorporated, priority 2007, dated 2012):

Experiments:
Assay type in all cases: biochemical
PKC theta kinase = PKC theta kinase (Homo sapiens, UniProt Q04759); experiment: PKC theta kinase inhibition, coupled-enzyme NADH absorbance assay (Ki); details: 240 μM ATP, 18 nM PKC theta, 30° C.; read-out: Ki PKC theta
Method in brief: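 Coupled-enzyme kinase assay following NADH absorbance at 340 nm, in 100 mM HEPES pH 7.5, 10 mM MgCl2, 25 mM NaCl, 0.1 mM EDTA, 0.01% Brij. Compound in DMSO preincubated with enzyme 10 min at 30 °C. Ki from initial rates by non-linear regression.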

PKC delta kinase = PKC delta kinase (Homo sapiens, UniProt Q05655); experiment: PKC delta kinase inhibition, coupled-enzyme NADH absorbance assay (Ki); details: 150 μM ATP, 46 nM PKC delta, 30° C.; read-out: Ki PKC delta
Sequence of PKC delta kinase (Q05655 whole entry): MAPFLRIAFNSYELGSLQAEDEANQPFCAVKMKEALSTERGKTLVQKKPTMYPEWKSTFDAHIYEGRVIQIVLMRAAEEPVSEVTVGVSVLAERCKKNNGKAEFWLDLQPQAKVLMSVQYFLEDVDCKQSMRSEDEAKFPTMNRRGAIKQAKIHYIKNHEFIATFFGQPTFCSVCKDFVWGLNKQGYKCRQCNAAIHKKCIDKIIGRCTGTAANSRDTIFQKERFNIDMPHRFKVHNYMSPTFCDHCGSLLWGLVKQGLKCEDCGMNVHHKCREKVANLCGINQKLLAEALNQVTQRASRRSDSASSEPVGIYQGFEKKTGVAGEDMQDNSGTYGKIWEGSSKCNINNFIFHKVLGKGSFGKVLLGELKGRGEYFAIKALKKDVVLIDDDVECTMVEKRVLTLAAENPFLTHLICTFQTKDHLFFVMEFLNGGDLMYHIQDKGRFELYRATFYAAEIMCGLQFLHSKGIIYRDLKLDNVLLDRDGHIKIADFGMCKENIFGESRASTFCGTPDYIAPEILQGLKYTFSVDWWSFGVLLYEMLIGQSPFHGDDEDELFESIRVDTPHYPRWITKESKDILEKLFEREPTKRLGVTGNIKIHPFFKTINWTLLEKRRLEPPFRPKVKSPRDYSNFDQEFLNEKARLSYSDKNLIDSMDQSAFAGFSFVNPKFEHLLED
Method in brief: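 Assay buffer was 100 mM HEPES pH 7.5, 10 mM MgCl2, 25 mM NaCl, 0.1 mM EDTA, 0.01% Brij. Enzyme buffer was equilibrated with compound in DMSO for 10 min at 30 °C. Ki values were derived by non-linear regression of initial rate data.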

PKC alpha kinase = PKC alpha kinase (Homo sapiens, UniProt P17252); experiment: PKC alpha kinase inhibition, coupled-enzyme NADH absorbance assay (Ki); details: 130 μM ATP, 4.5 nM PKC alpha, 30° C.; read-out: Ki PKC alpha

Sequence of PKC theta kinase (Q04759 whole entry): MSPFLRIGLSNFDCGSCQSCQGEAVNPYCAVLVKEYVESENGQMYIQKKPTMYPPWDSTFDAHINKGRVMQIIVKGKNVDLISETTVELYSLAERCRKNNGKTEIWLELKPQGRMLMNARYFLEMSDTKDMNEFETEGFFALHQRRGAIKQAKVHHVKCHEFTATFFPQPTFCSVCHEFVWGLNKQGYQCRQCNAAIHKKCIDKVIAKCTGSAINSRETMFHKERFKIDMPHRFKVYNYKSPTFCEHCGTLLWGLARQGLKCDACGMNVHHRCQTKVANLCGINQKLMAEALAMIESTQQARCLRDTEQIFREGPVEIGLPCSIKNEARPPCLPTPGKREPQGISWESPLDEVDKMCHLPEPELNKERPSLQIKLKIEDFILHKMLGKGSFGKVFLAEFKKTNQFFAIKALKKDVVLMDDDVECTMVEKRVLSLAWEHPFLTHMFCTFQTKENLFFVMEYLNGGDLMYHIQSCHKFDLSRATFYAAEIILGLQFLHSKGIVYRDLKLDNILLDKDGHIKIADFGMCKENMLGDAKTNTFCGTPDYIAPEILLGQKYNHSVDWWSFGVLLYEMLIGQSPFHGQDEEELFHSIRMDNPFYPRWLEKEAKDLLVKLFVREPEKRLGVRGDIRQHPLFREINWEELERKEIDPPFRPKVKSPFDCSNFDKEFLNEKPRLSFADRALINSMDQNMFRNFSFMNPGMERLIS

Row | Ki (PKC theta kinase) | Ki (PKC delta kinase) | Ki (PKC alpha kinase) | SMILES
1 | < 50 nM | < 500 nM | < 500 nM | N#CC1(c2cccc(-c3ccnc4[nH]nc(C(F)(F)F)c34)c2)CC1 [Compound 273]
2 | < 50 nM | < 500 nM | < 500 nM | Cc1cc(-c2ccnc3[nH]nc(C(F)(F)F)c23)cc(C2(CN)CCOCC2)c1 [Compound 275]
3 | < 50 nM | < 2800 nM | < 500 nM | NCC1(c2cc(F)cc(-c3ccnc4[nH]nc(C(F)(F)F)c34)c2)CCOCC1 [Compound 276]
4 | < 50 nM | < 50 nM | < 50 nM | CCC(C)(CN)c1cc(F)cc(-c2ccnc3[nH]nc(C(F)(F)F)c23)c1 (stereo not drawn) [Compound 277]
5 | < 50 nM | < 500 nM | < 500 nM | NCC1(c2cccc(-c3ccnc4[nH]nc(C(F)(F)F)c34)c2)CC1 [Compound 278]
6 | < 50 nM | < 2800 nM | < 2800 nM | N#CC1(c2cccc(-c3ccnc4[nH]nc(C(F)(F)F)c34)c2)CCC1 [Compound 279]
7 | < 50 nM | < 50 nM | < 500 nM | CCC(CN)c1cccc(-c2ccnc3[nH]nc(C(F)(F)F)c23)c1 (stereo not drawn) [Compound 281]
8 | < 50 nM | < 500 nM | < 500 nM | Cc1cc(-c2ccnc3[nH]nc(C(F)(F)F)c23)cc(C2(CN)CC2)c1 [Compound 282]
9 | < 50 nM | < 2800 nM | < 500 nM | N#CC1(c2cc(CCCN)cc(-c3ccnc4[nH]nc(C(F)(F)F)c34)c2)CC1 [Compound 283, 1-(3-(3-aminopropyl)-5-(3-(trifluoromethyl)-1H-pyrazolo[3,4-b]pyridin-4-yl)phenyl)cyclopropanecarbonitrile]
10 | < 50 nM | < 500 nM | < 2800 nM | COCCC(CN)c1cccc(-c2ccnc3[nH]nc(C(F)(F)F)c23)c1 (stereo not drawn) [Compound 284]
11 | < 50 nM | < 500 nM | < 500 nM | COCCC(C)(CN)c1cccc(-c2ccnc3[nH]nc(C(F)(F)F)c23)c1 (stereo not drawn) [Compound 285]
12 | < 50 nM | < 500 nM | < 500 nM | COCC[C@@](C)(CN)c1cccc(-c2ccnc3[nH]nc(C(F)(F)F)c23)c1 [Compound 286]
13 | < 50 nM | < 2800 nM | < 500 nM | COCC[C@](C)(CN)c1cccc(-c2ccnc3[nH]nc(C(F)(F)F)c23)c1 [Compound 287]
14 | < 50 nM | < 2800 nM | < 500 nM | CCC1(c2cccc(-c3ccnc4[nH]nc(C(F)(F)F)c34)c2)CNC(=O)O1 (stereo not drawn) [Compound 288]
15 | > 700 nM | > 2000 nM | > 1200 nM | FC(F)(F)c1n[nH]c2nccc(-c3cccc(C4(COCc5ccccc5)CC4)c3)c12 [Compound 289]
16 | < 50 nM | < 500 nM | < 2800 nM | OCC1(c2cccc(-c3ccnc4[nH]nc(C(F)(F)F)c34)c2)CC1 [Compound 290]
17 | < 50 nM | < 2800 nM | > 1200 nM | OCC1(c2cccc(-c3ccnc4[nH]nc(C(F)(F)F)c34)c2)CCC1 [Compound 291]
18 | < 50 nM | > 1200 nM | < 500 nM | CCC1(c2cc(C)cc(-c3ccnc4[nH]nc(C(F)(F)F)c34)c2)CNC(=O)O1 (stereo not drawn) [Compound 292]
19 | < 50 nM | < 500 nM | < 500 nM | CCC(F)(CN)c1cc(C)cc(-c2ccnc3[nH]nc(C(F)(F)F)c23)c1 (stereo not drawn) [Compound 293]
20 | < 500 nM | > 1200 nM | > 1200 nM | NCc1cccc(-c2ccnc3[nH]nc(C(F)(F)F)c23)c1 [Compound 294]
21 | > 700 nM | > 1200 nM | > 1200 nM | CC#CC1(c2cc(C)cc(-c3ccnc4[nH]nc(C(F)(F)F)c34)c2)CNC(=O)O1 (stereo not drawn) [Compound 295]
22 | < 50 nM | > 1200 nM | < 500 nM | CCC1(c2cc(C)cc(-c3ccnc4[nH]nc(C(F)(F)F)c34)c2)CNC(=S)O1 (stereo not drawn) [Compound 296]
23 | < 50 nM | < 2800 nM | < 500 nM | COC(CN)c1cc(C)cc(-c2ccnc3[nH]nc(C(F)(F)F)c23)c1 (stereo not drawn) [Compound 297]
24 | > 700 nM | > 1200 nM | > 1200 nM | NC(CC1CCCCC1)c1cccc(-c2ccnc3[nH]nc(C(F)(F)F)c23)c1 (stereo not drawn) [Compound 298]
25 | < 50 nM | < 500 nM | < 2800 nM | N#CC1(c2cc(CCCN)cc(-c3ccnc4[nH]ncc34)c2)CC1 [Compound 301]

Row | Ki (PKC theta kinase) | Ki (PKC delta kinase) | Ki (PKC alpha kinase) | SMILES
26 | < 50 nM | < 500 nM | < 2800 nM | CCc1n[nH]c2nccc(-c3cc(CCCN)cc(C4(C#N)CC4)c3)c12 [Compound 302]
27 | < 50 nM | < 500 nM | < 2800 nM | NCC1(c2cccc(-c3ccnc4[nH]nc(C(F)(F)F)c34)c2)COC1 [Compound 305, (3-(3-(3-(trifluoromethyl)-1H-pyrazolo[3,4-b]pyridin-4-yl)phenyl)oxetan-3-yl)methanamine]
28 | < 50 nM | < 500 nM | > 1200 nM | CCc1n[nH]c2nccc(-c3cccc(C4(CN)COC4)c3)c12 [Compound 306]
29 | < 500 nM | < 500 nM | > 1200 nM | NCC1CCc2ccc(-c3ccnc4[nH]ncc34)cc21 (stereo not drawn) [Compound 308]
30 | < 50 nM | < 2800 nM | < 2800 nM | CCC(N)c1cccc(-c2ccnc3[nH]nc(C(F)(F)F)c23)c1 (stereo not drawn) [Compound 309]
31 | < 50 nM | > 1200 nM | < 2800 nM | Cc1cc(-c2ccnc3[nH]ncc23)cc(C2(CN)CNC(=O)O2)c1 (stereo not drawn) [Compound 310]
32 | < 50 nM | < 500 nM | < 500 nM | N#CC1(c2cc(-c3ccnc4[nH]nc(C(F)(F)F)c34)cc(C(F)(F)CN)c2)CC1 [Compound 311]
33 | < 50 nM | < 2800 nM | < 500 nM | N#CC1(c2cc(CCCO)cc(-c3ccnc4[nH]nc(C(F)(F)F)c34)c2)CC1 [Compound 312]
34 | < 50 nM | < 500 nM | < 2800 nM | CCC(O)(c1cc(C)cc(-c2ccnc3[nH]nc(C(F)(F)F)c23)c1)C1CNC1 (stereo not drawn) [Compound 314]
35 | < 2800 nM | > 1200 nM | > 1200 nM | CC(C)(O)C#Cc1cc(-c2ccnc3[nH]nc(C(F)(F)F)c23)cc(C2(C#N)CC2)c1 [Compound 315]
36 | < 50 nM | > 1200 nM | > 1200 nM | CC(C)(O)CCc1cc(-c2ccnc3[nH]nc(C(F)(F)F)c23)cc(C2(C#N)CC2)c1 [Compound 316]
37 | < 50 nM | > 1200 nM | > 1200 nM | CC(C)(N)CCc1cc(-c2ccnc3[nH]nc(C(F)(F)F)c23)cc(C2(C#N)CC2)c1 [Compound 317]
38 | < 50 nM | < 50 nM | < 500 nM | CCC(C)(CO)c1cccc(-c2ccnc3[nH]nc(C(F)(F)F)c23)c1 (stereo not drawn) [Compound 318]
39 | < 50 nM | < 500 nM | < 500 nM | C#CC1(c2cc(C)cc(-c3ccnc4[nH]ncc34)c2)CNC(=O)O1 (stereo not drawn) [Compound 319]
40 | > 700 nM | > 1200 nM | > 1200 nM | N#CC(c1cccc(-c2ccnc3[nH]ncc23)c1)N1CCOCC1 (stereo not drawn) [Compound 320]
41 | < 500 nM | > 1200 nM | > 1200 nM | N#CC(c1cccc(-c2ccnc3[nH]ncc23)c1)N1CCNCC1 (stereo not drawn) [Compound 321]
42 | > 700 nM | > 1200 nM | > 1200 nM | OCc1cccc(-c2ccnc3[nH]ncc23)c1 [Compound 322]
43 | < 500 nM | < 2800 nM | < 500 nM | Cc1cc(/C(=C/C#N)CN)cc(-c2ccnc3[nH]ncc23)c1 [Compound 323]
44 | < 50 nM | > 1200 nM | < 500 nM | Cc1cc(-c2ccnc3[nH]nc(C(F)(F)F)c23)cc(C(C)(C)C#N)c1 [Compound 324]
45 | < 500 nM | > 1200 nM | < 500 nM | C=CCC1(c2cc(C)cc(-c3ccnc4[nH]ncc34)c2)CNC(=O)O1 (stereo not drawn) [Compound 325]
46 | < 500 nM | > 1200 nM | > 1200 nM | C=CCC1(c2cc(C)cc(-c3ccnc4[nH]ncc34)c2)CN(C)C(=O)O1 (stereo not drawn) [Compound 326]
47 | < 500 nM | > 1200 nM | < 2800 nM | Cc1cc(-c2ccnc3[nH]ncc23)cc(C2(Cc3ccccc3)CNC(=O)O2)c1 (stereo not drawn) [Compound 327]
48 | < 50 nM | < 2800 nM | < 2800 nM | N#CC1(c2cc(-c3ccnc4[nH]ncc34)cc(C(F)(F)C3CNC3)c2)CC1 [Compound 328]
49 | < 50 nM | > 1200 nM | > 1200 nM | N#CC1(c2cc(CC(N)=O)cc(-c3ccnc4[nH]nc(C(F)(F)F)c34)c2)CC1 [Compound 329]
50 | < 50 nM | < 500 nM | < 500 nM | N#CC1(c2cc(-c3ccnc4[nH]ncc34)cc(C(F)(F)CCN)c2)CC1 [Compound 330]

Row | SMILES | Ki (PKC theta kinase) | Ki (PKC delta kinase) | Ki (PKC alpha kinase)
51 | CCc1cc(-c2ccnc3[nH]nc(C(F)(F)F)c23)cc(C2(CN)CCC2)c1 [Compound 272] | < 50 nM | < 2800 nM | < 500 nM
52 | NCC1(c2cc(F)cc(-c3ccnc4[nH]nc(C(F)(F)F)c34)c2)CCC1 [Compound 274] | < 50 nM | < 500 nM | < 50 nM
53 | NCC1(c2cccc(-c3ccnc4[nH]nc(C(F)(F)F)c34)c2)CCC1 [Compound 280] | < 50 nM | < 500 nM | < 500 nM
